Reference: PubChem BioAssay (NCI)
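How tested: cells in 96-well plates exposed to compound for 48 hours at five concentrations. TGI denotes the concentration required for complete inhibition of growth.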

Assays:
Test in all cases: NCI-60 cell line screen, 48 h
UACC-257 melanoma = tested on: UACC-257 melanoma
PC-3 prostate = tested on: PC-3 prostate
SK-OV-3 ovarian = tested on: SK-OV-3 ovarian
TK-10 renal = tested on: TK-10 renal
UACC-62 melanoma = tested on: UACC-62 melanoma
MOLT-4 leukemia = tested on: MOLT-4 leukemia
EKVX NSCLC = tested on: EKVX NSCLC
HL-60(TB) leukemia = tested on: HL-60(TB) leukemia
MDA-N = tested on: MDA-N
MALME-3M melanoma = tested on: MALME-3M melanoma
NCI-H522 lung = tested on: NCI-H522 lung
NCI-H460 lung = tested on: NCI-H460 lung
NCI-H226 lung = tested on: NCI-H226 lung
HCC-2998 colon = tested on: HCC-2998 colon
M14 melanoma = tested on: M14 melanoma
HOP-62 NSCLC = tested on: HOP-62 NSCLC
HCT-15 colon = tested on: HCT-15 colon
KM12 colon = tested on: KM12 colon
HCT-116 colon = tested on: HCT-116 colon
U251 CNS = tested on: U251 CNS
LOX IMVI melanoma = tested on: LOX IMVI melanoma
A549 NSCLC = tested on: A549 NSCLC
SF-295 CNS = tested on: SF-295 CNS
NCI/ADR-RES ovarian = tested on: NCI/ADR-RES ovarian
SK-MEL-2 melanoma = tested on: SK-MEL-2 melanoma
SNB-75 CNS = tested on: SNB-75 CNS
SW-620 colon = tested on: SW-620 colon
UO-31 renal = tested on: UO-31 renal
CCRF-CEM leukemia = tested on: CCRF-CEM leukemia
SK-MEL-28 melanoma = tested on: SK-MEL-28 melanoma
ACHN renal = tested on: ACHN renal
DU-145 prostate = tested on: DU-145 prostate
MCF7 breast = tested on: MCF7 breast
RPMI-8226 leukemia = tested on: RPMI-8226 leukemia
SK-MEL-5 melanoma = tested on: SK-MEL-5 melanoma
CAKI-1 renal = tested on: CAKI-1 renal
RXF 393 renal = tested on: RXF 393 renal
BT-549 breast = tested on: BT-549 breast
COLO 205 colon = tested on: COLO 205 colon
K-562 leukemia = tested on: K-562 leukemia
OVCAR-4 ovarian = tested on: OVCAR-4 ovarian
HOP-92 NSCLC = tested on: HOP-92 NSCLC
OVCAR-5 ovarian = tested on: OVCAR-5 ovarian
MDA-MB-231 breast = tested on: MDA-MB-231 breast
IGROV1 ovarian = tested on: IGROV1 ovarian
OVCAR-8 ovarian = tested on: OVCAR-8 ovarian
HS 578T breast = tested on: HS 578T breast
SN12C renal = tested on: SN12C renal
SNB-19 CNS = tested on: SNB-19 CNS
NCI-H23 lung = tested on: NCI-H23 lung
SF-268 CNS = tested on: SF-268 CNS
786-0 renal = tested on: 786-0 renal
HT29 colon = tested on: HT29 colon
MDA-MB-435 = tested on: MDA-MB-435
SF-539 CNS = tested on: SF-539 CNS
OVCAR-3 ovarian = tested on: OVCAR-3 ovarian
A498 renal = tested on: A498 renal
SR leukemia = tested on: SR leukemia
T-47D breast = tested on: T-47D breast

CO[C@@H]1C[C@H]2N3CC[C@@]2(c2cc4c(cc2C3)OCO4)[C@H]2O[C@@H]12
TGI (UACC-257 melanoma): > 100 µM
TGI (PC-3 prostate): > 100 µM
TGI (SK-OV-3 ovarian): > 100 µM
TGI (TK-10 renal): > 100 µM
TGI (UACC-62 melanoma): > 100 µM
TGI (MOLT-4 leukemia): > 100 µM
TGI (EKVX NSCLC): > 100 µM
TGI (HL-60(TB) leukemia): > 100 µM
TGI (MDA-N): > 100 µM
TGI (MALME-3M melanoma): > 100 µM
TGI (NCI-H522 lung): > 100 µM
TGI (NCI-H460 lung): > 100 µM
TGI (NCI-H226 lung): 4.59 µM
TGI (HCC-2998 colon): > 100 µM
TGI (M14 melanoma): > 100 µM
TGI (HOP-62 NSCLC): > 100 µM
TGI (HCT-15 colon): > 100 µM
TGI (KM12 colon): > 100 µM
TGI (HCT-116 colon): > 100 µM
TGI (U251 CNS): > 100 µM
TGI (LOX IMVI melanoma): > 100 µM
TGI (A549 NSCLC): > 100 µM
TGI (SF-295 CNS): > 100 µM
TGI (NCI/ADR-RES ovarian): > 100 µM
TGI (SK-MEL-2 melanoma): > 100 µM
TGI (SNB-75 CNS): > 100 µM
TGI (SW-620 colon): > 100 µM
TGI (UO-31 renal): > 100 µM
TGI (CCRF-CEM leukemia): > 100 µM
TGI (SK-MEL-28 melanoma): > 100 µM
TGI (ACHN renal): > 100 µM
TGI (DU-145 prostate): > 100 µM
TGI (MCF7 breast): > 100 µM
TGI (RPMI-8226 leukemia): > 100 µM
TGI (SK-MEL-5 melanoma): 0.303 µM
TGI (CAKI-1 renal): > 100 µM
TGI (RXF 393 renal): > 100 µM
TGI (BT-549 breast): > 100 µM
TGI (COLO 205 colon): 2.24 µM
TGI (K-562 leukemia): > 100 µM
TGI (OVCAR-4 ovarian): > 100 µM
TGI (HOP-92 NSCLC): > 100 µM
TGI (OVCAR-5 ovarian): > 100 µM
TGI (MDA-MB-231 breast): > 100 µM
TGI (IGROV1 ovarian): > 100 µM
TGI (OVCAR-8 ovarian): > 100 µM
TGI (HS 578T breast): > 100 µM
TGI (SN12C renal): > 100 µM
TGI (SNB-19 CNS): > 100 µM
TGI (NCI-H23 lung): > 100 µM
TGI (SF-268 CNS): > 100 µM
TGI (786-0 renal): > 100 µM
TGI (HT29 colon): > 100 µM
TGI (MDA-MB-435): > 100 µM
TGI (SF-539 CNS): 2.88 µM
TGI (OVCAR-3 ovarian): > 100 µM
TGI (A498 renal): > 100 µM

O=C(CN1CCOCC1)c1ccc2c(c1)oc(=O)n2CCN1CCCC1
TGI (UACC-257 melanoma): > 100 µM
TGI (PC-3 prostate): > 100 µM
TGI (SK-OV-3 ovarian): > 100 µM
TGI (TK-10 renal): > 100 µM
TGI (UACC-62 melanoma): > 100 µM
TGI (MOLT-4 leukemia): > 100 µM
TGI (EKVX NSCLC): > 100 µM
TGI (HL-60(TB) leukemia): > 100 µM
TGI (MDA-N): > 100 µM
TGI (MALME-3M melanoma): > 100 µM
TGI (NCI-H460 lung): > 100 µM
TGI (NCI-H226 lung): > 100 µM
TGI (M14 melanoma): > 100 µM
TGI (HOP-62 NSCLC): > 100 µM
TGI (HCT-15 colon): > 100 µM
TGI (KM12 colon): > 100 µM
TGI (HCT-116 colon): > 100 µM
TGI (U251 CNS): > 100 µM
TGI (LOX IMVI melanoma): > 100 µM
TGI (SF-295 CNS): > 100 µM
TGI (NCI/ADR-RES ovarian): > 100 µM
TGI (SR leukemia): > 100 µM
TGI (SK-MEL-2 melanoma): > 100 µM
TGI (SNB-75 CNS): > 100 µM
TGI (SW-620 colon): > 100 µM
TGI (CCRF-CEM leukemia): > 100 µM
TGI (SK-MEL-28 melanoma): > 100 µM
TGI (ACHN renal): > 100 µM
TGI (DU-145 prostate): > 100 µM
TGI (MCF7 breast): > 100 µM
TGI (RPMI-8226 leukemia): > 100 µM
TGI (SK-MEL-5 melanoma): > 100 µM
TGI (CAKI-1 renal): > 100 µM
TGI (RXF 393 renal): > 100 µM
TGI (BT-549 breast): > 100 µM
TGI (COLO 205 colon): > 100 µM
TGI (K-562 leukemia): > 100 µM
TGI (OVCAR-5 ovarian): > 100 µM
TGI (MDA-MB-231 breast): > 100 µM
TGI (IGROV1 ovarian): > 100 µM
TGI (OVCAR-8 ovarian): > 100 µM
TGI (HS 578T breast): > 100 µM
TGI (SN12C renal): > 100 µM
TGI (SNB-19 CNS): > 100 µM
TGI (NCI-H23 lung): > 100 µM
TGI (SF-268 CNS): > 100 µM
TGI (786-0 renal): > 100 µM
TGI (HT29 colon): > 100 µM
TGI (MDA-MB-435): > 100 µM
TGI (SF-539 CNS): > 100 µM
TGI (OVCAR-3 ovarian): > 100 µM
TGI (A498 renal): > 100 µM

Nc1c(N2CCOCC2)c(=O)nc2[nH]/c(=C\c3ccccc3)c(=O)n12
TGI (UACC-257 melanoma): > 100 µM
TGI (SK-OV-3 ovarian): > 100 µM
TGI (TK-10 renal): > 100 µM
TGI (MOLT-4 leukemia): > 100 µM
TGI (EKVX NSCLC): > 100 µM
TGI (HL-60(TB) leukemia): 57.3 µM
TGI (MDA-N): > 100 µM
TGI (MALME-3M melanoma): > 100 µM
TGI (NCI-H522 lung): > 100 µM
TGI (NCI-H460 lung): > 100 µM
TGI (NCI-H226 lung): > 100 µM
TGI (HCC-2998 colon): > 100 µM
TGI (M14 melanoma): > 100 µM
TGI (HCT-15 colon): > 100 µM
TGI (KM12 colon): > 100 µM
TGI (HCT-116 colon): > 100 µM
TGI (U251 CNS): > 100 µM
TGI (T-47D breast): > 100 µM
TGI (LOX IMVI melanoma): > 100 µM
TGI (A549 NSCLC): > 100 µM
TGI (SF-295 CNS): > 100 µM
TGI (NCI/ADR-RES ovarian): > 100 µM
TGI (SR leukemia): > 100 µM
TGI (SNB-75 CNS): > 100 µM
TGI (SW-620 colon): > 100 µM
TGI (UO-31 renal): > 100 µM
TGI (CCRF-CEM leukemia): > 100 µM
TGI (SK-MEL-28 melanoma): > 100 µM
TGI (ACHN renal): > 100 µM
TGI (DU-145 prostate): > 100 µM
TGI (MCF7 breast): > 100 µM
TGI (RPMI-8226 leukemia): > 100 µM
TGI (SK-MEL-5 melanoma): > 100 µM
TGI (CAKI-1 renal): > 100 µM
TGI (RXF 393 renal): > 100 µM
TGI (COLO 205 colon): > 100 µM
TGI (K-562 leukemia): 93 µM
TGI (OVCAR-4 ovarian): > 100 µM
TGI (HOP-92 NSCLC): > 100 µM
TGI (OVCAR-5 ovarian): > 100 µM
TGI (MDA-MB-231 breast): > 100 µM
TGI (IGROV1 ovarian): > 100 µM
TGI (OVCAR-8 ovarian): > 100 µM
TGI (HS 578T breast): > 100 µM
TGI (SN12C renal): > 100 µM
TGI (SNB-19 CNS): > 100 µM
TGI (NCI-H23 lung): > 100 µM
TGI (SF-268 CNS): > 100 µM
TGI (786-0 renal): > 100 µM
TGI (HT29 colon): > 100 µM
TGI (MDA-MB-435): > 100 µM
TGI (SF-539 CNS): > 100 µM
TGI (A498 renal): > 100 µM
